Tests used:
[1] = test system: mESC and MEF; experiment: Secondary screening by flow cytometry (mESC and MEF incubated separately); format: cell-based, mouse; conditions: 2 μM, 1 hour
Experimental: To evaluate the application of chalcone derivatives as ESC-selective probes, 320 chalcone compounds were screened in mouse ESC (mESC) and mouse embryonic fibroblast (MEF) feeder cells prepared on 384-well cell culture microplates. From the image-based primary screening, 8 compounds that stained mESC consistently with stronger intensity than MEF were selected. For the secondary screening, mESC and MEF were incubated separately with each of the hit compounds and subsequently analyzed using flow cytometry.
(§1) MEFs and mESCs were cultured in 60 mm culture dish for 1 hour in the presence of 2 μM of hit compounds, including CDg4. The cells were harvested by trypsin treatment, washed with PBS and resuspended in PBS. The fluorescence intensity of the cells was measured on Flow Cytometry (BD™ LSR II) with FITC ([…], emission at 560 nm). The dot plot images for each cell type were overlaid using FlowJo7 (Three Star Inc.) For FACS MEF and mESC were cultured in a same dish and the sample was prepared as described above for flow cytometry. The cells gated into SSClow CDgreen4 bright and SSChigh CDgreen4 dim regions were collected using a FACS machine (BD FACSAria™).

[2] = test system: mixture of mESC and MEF; experiment: Enrichment of mESC from mESC/MEF mixture using FACS and fluorescence microscopy; format: cell-based, mouse; conditions: for mESC enrichment / sorting from mixed-cell population: FACS, mESC and MEF in same dish; for selective staining of ESC versus MEF feeder: live mESC cultured on MEF feeder, fluorescence microscopy
Experimental: To confirm the secondary screening data, a mixture of mESC and MEF was incubated with […]. The cell mixture was sorted using Fluorescence-Activated Cell Sorting (FACS).
as §1

[3] = test system: induced pluripotent stem cell (iPSC); experiment: Staining and FACS isolation of induced pluripotent stem cells; format: cell-based, mouse; conditions: iPSC from MEF of Oct4-GFP transgenic mice
Experimental: The iPS cells were maintained in mESC culture medium which was changed every day until designated time point. 4 dpi iPS was incubated with 2 μM of CDg4 for 1 hr at 37° C. The cells were harvested by trypsin treatment, washed with PBS and resuspended in PBS. The cells gated into SSClow CDg4 bright (R2) and SSChigh CDg4 dim (R1) regions were collected using a FACS machine (BD FACSAria™).
CDg4 was applied to induced pluripotent stem cell (iPSC) which was generated from MEF of transgenic mice that express GFP under the control of Oct4 (also known as Pou5f1) promoter. […] FACS was used to isolate early iPS cell population stained by CDg4. (FIG. 2). Isolation of the early iPS cell population will facilitate gene profiling using DNA microarray of this cell population. While gene expression profiling for mixture populations or using cell lines are reported, with lack of direct marker or probes for early iPS, it was not possible to study with purified early iPS.
The retroviral packaging cell, PlatE cell, was maintained in DMEM containing 10% FBS, 100 U/ml penicillin, 100 μg/ml streptomycin, 10 μg/ml blasticidin 5 and 1 μg/ml puromycin. […]

[4] = Fluorescence property measurement; format: physicochemical
Experimental: All reactions were performed in oven-dried glassware under a positive pressure of nitrogen. Unless otherwise noted, starting materials and solvents were purchased from Aldrich and Acros Organics and used without further purification. Analytical TLC was carried out on Merck 60 F254 silica gel plate (0.25 mm layer thickness) and visualization was done with UV light. Column chromatography was performed on Merck 60 silica gel (230-400 mesh). NMR spectra were recorded on a Bruker Avance 300 NMR spectrometer. Chemical shifts are reported as δ in units of parts per million (ppm) and coupling constants are reported as a J value in Hertz (Hz). Mass of all the compounds was determined by LC-MS of Agilent Technologies with an electrospray ionization source. All fluorescence assays were performed with a Gemini XS fluorescence plate reader.
10 μM solutions in DMSO were prepared and the absorption and emission of library compounds was measured. FIG. 3 is a representative absorbance and fluorescence spectrum.

λem [4]: 560 nm
λex [4]: 430 nm
SMILES: C=CC(=O)Nc1ccc(C(=O)/C=C/c2ccc(N(C)CCO)cc2)cc1 [CDg4]
selectivity for mESCs (side scatter and fluorescence intensity dot plot overlay of mESC and MEF) [1]: most selective for mESCs among the 8 hit compounds
mESC enrichment / sorting from mixed-cell population [2]: selective sorting and isolation from mixture of Feeder cells even up to day 5
mESC enrichment / sorting from mixed-cell population ([2]; listed as CD4): can be used for mESC enrichment from a mixed-cell population
selective staining of ESC versus MEF feeder [2]: much more brightly stained by CDg4 than MEF
selective staining of ESC versus MEF feeder ([2]; listed as CDgreen4): selectively stains embryonic stem cells (ESC) and iPSC in a feeder cell-based culture system
staining of iPSC colony [3]: selectively stained the iPSC colony
